Values quoted from earlier work as cited in patent publication US11433096B2, “Ophthalmic formulation and methods of use” (priority 2020, dated 2022).

Legend:
[1] = system: opacities; conditions: in vivo
[2] = system: diabetes-induced cataract; conditions: diabetic rats

SMILES	opacities progression and opacity score [1]	cross-linked glycation, expression of the receptor of glycated products and oxidative stress indicators in the eye lens ([2]; supplemental zinc)	progression and maturation of diabetes-induced cataract ([2]; supplemental zinc)	reduced content of total and imbalanced proportion of soluble proteins in the lens ([2]; supplemental zinc)	concentration of heat shock protein in the eye lens, specifically α-crystallin ([2]; zinc supplementation)	elevated activity and expression of polyol pathway enzymes and molecules in the lens ([2]; zinc supplementation)
O=S(=O)([O-])[O-].[Zn+2] [Zinc Sulfate]	retard opacities progression and lowering the opacity score					
[Zn] [zinc]		alleviated	alleviated	effective in preventing	induced	counteracted
